ChEMBL document CHEMBL1126278, “New neplanocin analogues. 1. Synthesis of 6'-modified neplanocin A derivatives as broad-spectrum antiviral agents” (J Med Chem, 1992)
In brackets after ≈: the same amount, converted by molar mass.

Columns and labels:
[1] = test system: HEL; experiment: Inhibitory effect on replication of DNA virus VZV (Oka) on HEL cell line.; assay type: functional, cell-based; settings: Homo sapiens
[2] = test system: HeLa; experiment: Inhibitory effect on replication of RNA virus coxsB-4 in HeLa cell line.; assay type: functional, cell-based; settings: Homo sapiens
[3] = test system: MT4; experiment: Inhibitory effect on replication of RNA virus cell growth in MT-4 cell line.; assay type: functional, cell-based; settings: Homo sapiens
[4] = test system: HEL; experiment: Inhibitory effect on replication of DNA virus CMV (Davis) on HEL cell line.; assay type: functional, cell-based; settings: Homo sapiens
[5] = test system: HEL; experiment: Inhibitory effect on replication of DNA virus Cell growth on HEL cell line.; assay type: functional, cell-based; settings: Homo sapiens
[6] = test system: Vero; experiment: Inhibitory effect on replication of RNA virus TV in Vero cell line.; assay type: functional, cell-based; settings: Chlorocebus sabaeus
[7] = test system: PRK; experiment: Inhibitory effect on replication of DNA virus Cell morphology on PRK cell line; assay type: functional, cell-based; settings: Oryctolagus cuniculus
[8] = test system: Vero; experiment: Inhibitory effect on replication of RNA virus SV in Vero cell line.; assay type: functional, cell-based; settings: Chlorocebus sabaeus
[9] = test system: ESM; experiment: Inhibitory effect on replication of RNA virus cell morphology in ESM cell line.; assay type: functional, cell-based
[10] = test system: Vero; experiment: Inhibitory effect on replication of RNA virus JV in Vero cell line.; assay type: functional, cell-based; settings: Chlorocebus sabaeus
[11] = test system: Vero; experiment: Inhibitory effect on replication of RNA virus SFV in Vero cell line; assay type: functional, cell-based; settings: Chlorocebus sabaeus
[12] = test system: HEL; experiment: Inhibitory effect on replication of DNA virus TK-VZV (07-1) on HEL cell line.; assay type: functional, cell-based; settings: Homo sapiens
[13] = test system: Vero; experiment: (§1) Inhibitory effect on replication of RNA virus cell morphology in Vero cell line.; assay type: functional, cell-based; settings: Chlorocebus sabaeus
[14] = test system: HeLa; experiment: cells; settings: Homo sapiens
[15] = test system: Vero; experiment: Inhibitory effect on replication of RNA virus PV-3 in Vero cell line.; assay type: functional, cell-based; settings: Chlorocebus sabaeus
[16] = test system: ESM; experiment: Inhibitory effect on replication of DNA virus VV on ESM cell line.; assay type: functional, cell-based
[17] = test system: PRK; experiment: Inhibitory effect on replication of RNA virus VSV in PRK cell line.; assay type: functional, cell-based; settings: Oryctolagus cuniculus
[18] = test system: HEL; experiment: Inhibitory effect on replication of DNA virus CMV (AD-169) on HEL cell line.; assay type: functional, cell-based; settings: Homo sapiens
[19] = test system: MDCK; experiment: cells; settings: Canis lupus familiaris
[20] = test system: Vero; experiment: Inhibitory effect on replication of RNA virus coxsB-4 in Vero cell line; assay type: functional, cell-based; settings: Chlorocebus sabaeus
[21] = test system: ESM; experiment: Inhibitory effect on replication of DNA virus HSV-1 (KOS) in ESM cell line; assay type: functional, cell-based
[22] = test system: PRK; experiment: Inhibitory effect on replication of RNA virus cell morphology in PRK cell line.; assay type: functional, cell-based; settings: Oryctolagus cuniculus
[23] = test system: ESM; experiment: Inhibitory effect on replication of DNA virus TK-HSV-1 (VMW 1837) on ESM cell line.; assay type: functional, cell-based
[24] = test system: MDCK; experiment: cells; settings: Canis lupus familiaris; remark: listed apart in the source
[25] = test system: MDCK; experiment: Inhibitory effect on replication of RNA virus cell morphology in MDCK cell line.; assay type: functional, cell-based; settings: Canis lupus familiaris
[26] = Inhibitory effect on replication of DNA virus HSV-2 (G) in PRK cell line.; assay type: functional, cell-based; settings: Oryctolagus cuniculus
[27] = test system: MT4; experiment: Inhibitory effect on replication of RNA virus HIV-1 in MT-4 cell line.; assay type: functional, cell-based; settings: Homo sapiens
[28] = test system: HeLa; experiment: Inhibitory effect on replication of RNA virus RSV in HeLa cell line; assay type: functional, cell-based; settings: Homo sapiens
[29] = test system: MT4; experiment: Inhibitory effect on replication of RNA virus HIV-2 in MT-4 cell line.; assay type: functional, cell-based; settings: Homo sapiens
[30] = Inhibitory effect on replication of DNA virus HSV-1 (KOS) in PRK cell line.; assay type: functional, cell-based; settings: Oryctolagus cuniculus
[31] = test system: Vero; experiment: Inhibitory effect on replication of RNA virus measles on Vero cell line.; assay type: functional, cell-based; settings: Chlorocebus sabaeus
[32] = test system: ESM; experiment: Inhibitory effect on replication of DNA virus HSV-2 (G) in ESM cell line; assay type: functional, cell-based
[33] = test system: Vero; experiment: Inhibitory effect on replication of RNA virus protein synthesis in Vero cell line.; assay type: functional, cell-based; settings: Chlorocebus sabaeus
[34] = test system: Vero; experiment: Inhibitory effect on replication of RNA virus reo-1 in Vero cell line.; assay type: functional, cell-based; settings: Chlorocebus sabaeus
[35] = test system: HEL; experiment: Inhibitory effect on replication of DNA virus TK-VZV (YSR) on HEL cell line.; assay type: functional, cell-based; settings: Homo sapiens
[36] = test system: PRK; experiment: Inhibitory effect on replication of DNA virus VV on PRK cell line.; assay type: functional, cell-based; settings: Oryctolagus cuniculus
[37] = test system: HeLa; experiment: Inhibitory effect on replication of RNA virus cell morphology in HeLa cell line.; assay type: functional, cell-based; settings: Homo sapiens
[38] = test system: ESM; experiment: Inhibitory effect on replication of DNA virus TK-HSV-1 (B2006) on ESM cell line.; assay type: functional, cell-based
[39] = test system: Vero; experiment: Inhibitory effect on replication of RNA virus RNA synthesis in Vero cell line.; assay type: functional, cell-based; settings: Chlorocebus sabaeus
[40] = test system: ESM; experiment: Inhibitory effect on replication of DNA virus Cell morphology on ESM cell line; assay type: functional, cell-based
[41] = test system: PRK; experiment: Inhibitory effect on replication of virus Cell morphology on PRK cell line; assay type: functional, cell-based; settings: Oryctolagus cuniculus
[42] = test system: HEL; experiment: Inhibitory effect on replication of DNA virus VZV (YS) on HEL cell line.; assay type: functional, cell-based; settings: Homo sapiens
[43] = test system: Vero; experiment: as §1; assay type: functional, cell-based, Homo sapiens; settings: Chlorocebus sabaeus
[44] = test system: HeLa; experiment: Inhibitory effect on replication of RNA virus VSV in HeLa cell line.; assay type: functional, cell-based; settings: Homo sapiens

Compound	IC50 [1] [µg/mL]	IC50 [2] [µg/mL]	IC50 [3] [µg/mL]	IC50 [4] [µg/mL]	IC50 [5] [µg/mL]	IC50 [6] [µg/mL]	IC50 [8] [µg/mL]	IC50 [10] [µg/mL]	IC50 [11] [µg/mL]	IC50 [12] [µg/mL]	IC50 [14] [µg/mL]	IC50 [15] [µg/mL]	IC50 [17] [µg/mL]	IC50 [18] [µg/mL]	IC50 [19] [µg/mL]	IC50 [20] [µg/mL]	IC50 [22] [µg/mL]	IC50 [24] [µg/mL]	IC50 [25] [µg/mL]	IC50 [26] [µg/mL]	further results
C[C@H](O)C1=C[C@@H](n2cnc3c(N)ncnc32)[C@H](O)[C@@H]1O	100 (≈ 361 µM)	> 400	> 100	9 (≈ 32.5 µM)	132 (≈ 476 µM)	55 (≈ 198 µM)	150 (≈ 541 µM)	45 (≈ 162 µM)	> 400	76 (≈ 274 µM)	> 400	100 (≈ 361 µM)	70 (≈ 252 µM)	15 (≈ 54.1 µM)	> 100	> 200	> 400	> 100	> 100	> 200	IC50 [7]: > 400 µg/mL; IC50 [9]: > 400 µg/mL; IC50 [13]: > 400 µg/mL; IC50 [16]: 40 µg/mL (≈ 144 µM); IC50 [21]: > 400 µg/mL; IC50 [23]: > 400 µg/mL; IC50 [27]: > 100 µg/mL; IC50 [28]: > 100 µg/mL; IC50 [29]: > 100 µg/mL; IC50 [30]: > 400 µg/mL; IC50 [31]: > 100 µg/mL; IC50 [32]: > 400 µg/mL; IC50 [33]: > 190 µg/mL; IC50 [34]: 40 µg/mL (≈ 144 µM); IC50 [35]: 39 µg/mL (≈ 141 µM); IC50 [36]: 70 µg/mL (≈ 252 µM); IC50 [37]: > 400 µg/mL; IC50 [38]: > 400 µg/mL; IC50 [39]: 36 µg/mL (≈ 130 µM); IC50 [40]: > 400 µg/mL
CSCC1=C[C@@H](n2cnc3c(N)ncnc32)[C@H](O)[C@@H]1O	2.5 (≈ 8.52 µM)	> 200	60 (≈ 205 µM)	1 (≈ 3.41 µM)	9 (≈ 30.7 µM)	40 (≈ 136 µM)	> 200	40 (≈ 136 µM)	> 400	2 (≈ 6.82 µM)	> 200	> 200	70 (≈ 239 µM)	1.5 (≈ 5.11 µM)	> 100	> 200	> 400	> 100	> 100	> 400	IC50 [41]: > 400 µg/mL; IC50 [42]: 2 µg/mL (≈ 6.82 µM); IC50 [27]: > 40 µg/mL; IC50 [28]: > 40 µg/mL; IC50 [29]: > 40 µg/mL; IC50 [30]: > 400 µg/mL; IC50 [31]: 40 µg/mL (≈ 136 µM); IC50 [43]: > 400 µg/mL; IC50 [34]: 40 µg/mL (≈ 136 µM); IC50 [44]: > 200 µg/mL; IC50 [35]: 5 µg/mL (≈ 17 µM); IC50 [36]: 70 µg/mL (≈ 239 µM); IC50 [37]: > 400 µg/mL
